Measurements as given in ChEMBL document CHEMBL4270496, “How to train your inhibitor: Design strategies to overcome resistance to Epidermal Growth Factor Receptor inhibitors” (Eur J Med Chem, 2017).
pIC50: −log10 of the molar value.

What was measured:
A-431 [1] = assay: Antiproliferative activity against human A431 cells expressing wild type EGFR incubated for 72 hrs by MTS assay; format: functional, cell-based; conditions: A-431, 72 h
[2] = molecular target: T1, Epidermal growth factor receptor (Homo sapiens, UniProt P00533); assay: Inhibition of GST-tagged human EGFR catalytic domain expressed in insect cells
T1 sequence (P00533 whole entry, the tested form may be a part): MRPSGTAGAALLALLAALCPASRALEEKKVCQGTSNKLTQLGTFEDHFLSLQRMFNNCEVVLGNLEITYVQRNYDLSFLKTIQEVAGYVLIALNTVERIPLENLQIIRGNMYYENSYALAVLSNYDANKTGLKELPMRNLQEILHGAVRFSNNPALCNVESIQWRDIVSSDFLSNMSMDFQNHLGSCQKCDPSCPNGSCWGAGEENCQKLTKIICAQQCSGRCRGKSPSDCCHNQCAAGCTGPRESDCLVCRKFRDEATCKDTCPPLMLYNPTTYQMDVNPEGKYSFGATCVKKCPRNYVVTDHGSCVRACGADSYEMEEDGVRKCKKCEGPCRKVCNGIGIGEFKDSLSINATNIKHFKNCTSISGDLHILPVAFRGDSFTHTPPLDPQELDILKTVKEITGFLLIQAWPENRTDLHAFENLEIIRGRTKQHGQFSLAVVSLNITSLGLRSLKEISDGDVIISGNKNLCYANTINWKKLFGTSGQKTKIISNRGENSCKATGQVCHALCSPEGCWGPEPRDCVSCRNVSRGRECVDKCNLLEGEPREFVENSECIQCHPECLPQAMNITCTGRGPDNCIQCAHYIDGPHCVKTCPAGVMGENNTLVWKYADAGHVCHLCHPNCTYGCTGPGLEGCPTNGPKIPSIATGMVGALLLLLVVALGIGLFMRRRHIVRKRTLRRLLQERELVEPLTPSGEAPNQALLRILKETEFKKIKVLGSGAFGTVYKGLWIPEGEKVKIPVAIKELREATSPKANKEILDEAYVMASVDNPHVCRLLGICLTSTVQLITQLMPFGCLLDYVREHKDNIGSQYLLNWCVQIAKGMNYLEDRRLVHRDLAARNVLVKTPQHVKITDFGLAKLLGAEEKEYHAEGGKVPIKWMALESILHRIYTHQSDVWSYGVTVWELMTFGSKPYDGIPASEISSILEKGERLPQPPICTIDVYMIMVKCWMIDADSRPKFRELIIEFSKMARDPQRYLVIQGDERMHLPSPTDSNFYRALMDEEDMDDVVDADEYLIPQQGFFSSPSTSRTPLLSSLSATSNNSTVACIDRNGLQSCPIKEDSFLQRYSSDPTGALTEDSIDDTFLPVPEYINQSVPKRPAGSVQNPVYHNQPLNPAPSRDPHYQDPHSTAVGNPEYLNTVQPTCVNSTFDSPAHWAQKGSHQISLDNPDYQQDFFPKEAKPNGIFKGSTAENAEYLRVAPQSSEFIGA

[3] = molecular target: T2, Receptor tyrosine-protein kinase erbB-2 (Homo sapiens, UniProt P04626); assay: Inhibition of GST-tagged human HER2 catalytic domain expressed in insect cells
T2 sequence (P04626 whole entry, the tested form may be a part): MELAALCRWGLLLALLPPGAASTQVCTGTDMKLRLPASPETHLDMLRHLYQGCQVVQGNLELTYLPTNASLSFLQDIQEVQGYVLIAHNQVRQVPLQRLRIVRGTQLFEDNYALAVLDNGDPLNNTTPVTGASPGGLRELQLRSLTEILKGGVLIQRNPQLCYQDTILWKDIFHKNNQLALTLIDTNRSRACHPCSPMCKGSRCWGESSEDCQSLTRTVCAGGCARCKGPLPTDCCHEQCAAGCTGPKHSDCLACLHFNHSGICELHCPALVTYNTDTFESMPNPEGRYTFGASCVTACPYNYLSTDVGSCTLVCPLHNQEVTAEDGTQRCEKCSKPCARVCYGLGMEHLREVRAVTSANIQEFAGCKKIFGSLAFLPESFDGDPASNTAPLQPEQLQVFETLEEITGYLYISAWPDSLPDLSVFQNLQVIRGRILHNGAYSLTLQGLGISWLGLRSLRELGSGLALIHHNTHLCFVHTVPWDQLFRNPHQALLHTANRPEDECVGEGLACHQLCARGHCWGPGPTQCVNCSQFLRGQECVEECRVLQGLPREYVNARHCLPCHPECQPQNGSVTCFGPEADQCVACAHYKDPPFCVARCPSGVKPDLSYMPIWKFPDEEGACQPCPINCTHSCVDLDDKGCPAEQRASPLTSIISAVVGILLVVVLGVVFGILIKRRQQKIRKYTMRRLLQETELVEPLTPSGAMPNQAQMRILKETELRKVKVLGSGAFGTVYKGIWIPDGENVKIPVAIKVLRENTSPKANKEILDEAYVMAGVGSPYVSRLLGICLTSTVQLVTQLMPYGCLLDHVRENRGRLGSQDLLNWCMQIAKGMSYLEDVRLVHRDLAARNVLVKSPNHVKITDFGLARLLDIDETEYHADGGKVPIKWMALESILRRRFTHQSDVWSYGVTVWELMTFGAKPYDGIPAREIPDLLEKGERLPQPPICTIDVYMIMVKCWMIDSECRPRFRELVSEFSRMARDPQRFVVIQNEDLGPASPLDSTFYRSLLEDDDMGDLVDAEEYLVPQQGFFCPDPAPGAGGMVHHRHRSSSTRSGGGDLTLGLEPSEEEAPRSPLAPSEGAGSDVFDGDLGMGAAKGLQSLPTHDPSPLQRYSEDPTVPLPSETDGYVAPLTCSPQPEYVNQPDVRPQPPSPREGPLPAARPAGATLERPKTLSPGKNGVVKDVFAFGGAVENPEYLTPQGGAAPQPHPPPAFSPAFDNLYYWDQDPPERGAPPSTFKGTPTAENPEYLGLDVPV

[4] = molecular target: Epidermal growth factor receptor (Homo sapiens, UniProt P00533, L858R/T790M); assay: Inhibition of human EGFR T790M/L858R mutant expressed in mouse Ba/F3 cells; format: cell-based
[5] = molecular target: Epidermal growth factor receptor (Homo sapiens, UniProt P00533, L858R); assay: Inhibition of human EGFR L858R mutant expressed in mouse Ba/F3 cells; format: cell-based
[6] = molecular target: Epidermal growth factor receptor (Homo sapiens, UniProt P00533, T790M); assay: Inhibition of human EGFR T790M mutant expressed in mouse Ba/F3 cells; format: cell-based
Chain of Epidermal growth factor receptor (Homo sapiens, UniProt P00533, T790M) (P00533 25-1210 T790M limits assumed): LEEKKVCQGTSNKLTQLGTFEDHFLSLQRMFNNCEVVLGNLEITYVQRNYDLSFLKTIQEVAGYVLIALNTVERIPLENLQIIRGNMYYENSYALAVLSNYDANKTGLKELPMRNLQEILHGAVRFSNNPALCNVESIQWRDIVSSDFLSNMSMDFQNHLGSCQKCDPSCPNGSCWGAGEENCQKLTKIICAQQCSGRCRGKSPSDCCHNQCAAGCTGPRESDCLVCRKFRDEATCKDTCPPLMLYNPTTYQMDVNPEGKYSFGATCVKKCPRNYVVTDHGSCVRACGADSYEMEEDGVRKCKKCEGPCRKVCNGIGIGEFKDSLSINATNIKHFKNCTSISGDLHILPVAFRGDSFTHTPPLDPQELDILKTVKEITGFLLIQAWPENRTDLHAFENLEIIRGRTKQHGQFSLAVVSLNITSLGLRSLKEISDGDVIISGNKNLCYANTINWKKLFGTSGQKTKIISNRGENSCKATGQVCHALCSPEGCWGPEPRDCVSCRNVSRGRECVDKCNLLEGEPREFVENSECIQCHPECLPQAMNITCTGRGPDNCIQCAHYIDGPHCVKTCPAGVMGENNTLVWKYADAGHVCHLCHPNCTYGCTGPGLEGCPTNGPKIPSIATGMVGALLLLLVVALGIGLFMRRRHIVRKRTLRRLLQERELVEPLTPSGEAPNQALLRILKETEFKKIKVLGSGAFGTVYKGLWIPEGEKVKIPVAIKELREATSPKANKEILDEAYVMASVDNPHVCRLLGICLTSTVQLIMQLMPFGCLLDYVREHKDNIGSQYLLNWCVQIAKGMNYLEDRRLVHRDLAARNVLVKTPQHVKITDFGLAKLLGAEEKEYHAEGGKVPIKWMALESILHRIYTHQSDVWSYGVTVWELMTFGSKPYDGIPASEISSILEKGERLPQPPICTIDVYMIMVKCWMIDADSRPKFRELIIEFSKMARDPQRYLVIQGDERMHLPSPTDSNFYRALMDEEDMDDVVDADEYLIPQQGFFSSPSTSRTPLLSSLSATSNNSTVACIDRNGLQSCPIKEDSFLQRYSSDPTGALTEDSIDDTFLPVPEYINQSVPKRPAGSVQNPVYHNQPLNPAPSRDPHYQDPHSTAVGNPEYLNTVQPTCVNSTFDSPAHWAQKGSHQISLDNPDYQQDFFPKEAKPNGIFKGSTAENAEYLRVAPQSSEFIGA

[7] = molecular target: T1, Epidermal growth factor receptor; assay: Inhibition of EGFR (unknown origin)
[8] = molecular target: T2, Receptor tyrosine-protein kinase erbB-2; assay: Inhibition of HER2 (unknown origin)
[9] = molecular target: Epidermal growth factor receptor (Homo sapiens, UniProt P00533, T790M/L858R); assay: Inhibition of EGFR T790M/L858R mutant (unknown origin)
Chain of Epidermal growth factor receptor (Homo sapiens, UniProt P00533, T790M/L858R) (P00533 25-1210 T790M/L858R limits assumed): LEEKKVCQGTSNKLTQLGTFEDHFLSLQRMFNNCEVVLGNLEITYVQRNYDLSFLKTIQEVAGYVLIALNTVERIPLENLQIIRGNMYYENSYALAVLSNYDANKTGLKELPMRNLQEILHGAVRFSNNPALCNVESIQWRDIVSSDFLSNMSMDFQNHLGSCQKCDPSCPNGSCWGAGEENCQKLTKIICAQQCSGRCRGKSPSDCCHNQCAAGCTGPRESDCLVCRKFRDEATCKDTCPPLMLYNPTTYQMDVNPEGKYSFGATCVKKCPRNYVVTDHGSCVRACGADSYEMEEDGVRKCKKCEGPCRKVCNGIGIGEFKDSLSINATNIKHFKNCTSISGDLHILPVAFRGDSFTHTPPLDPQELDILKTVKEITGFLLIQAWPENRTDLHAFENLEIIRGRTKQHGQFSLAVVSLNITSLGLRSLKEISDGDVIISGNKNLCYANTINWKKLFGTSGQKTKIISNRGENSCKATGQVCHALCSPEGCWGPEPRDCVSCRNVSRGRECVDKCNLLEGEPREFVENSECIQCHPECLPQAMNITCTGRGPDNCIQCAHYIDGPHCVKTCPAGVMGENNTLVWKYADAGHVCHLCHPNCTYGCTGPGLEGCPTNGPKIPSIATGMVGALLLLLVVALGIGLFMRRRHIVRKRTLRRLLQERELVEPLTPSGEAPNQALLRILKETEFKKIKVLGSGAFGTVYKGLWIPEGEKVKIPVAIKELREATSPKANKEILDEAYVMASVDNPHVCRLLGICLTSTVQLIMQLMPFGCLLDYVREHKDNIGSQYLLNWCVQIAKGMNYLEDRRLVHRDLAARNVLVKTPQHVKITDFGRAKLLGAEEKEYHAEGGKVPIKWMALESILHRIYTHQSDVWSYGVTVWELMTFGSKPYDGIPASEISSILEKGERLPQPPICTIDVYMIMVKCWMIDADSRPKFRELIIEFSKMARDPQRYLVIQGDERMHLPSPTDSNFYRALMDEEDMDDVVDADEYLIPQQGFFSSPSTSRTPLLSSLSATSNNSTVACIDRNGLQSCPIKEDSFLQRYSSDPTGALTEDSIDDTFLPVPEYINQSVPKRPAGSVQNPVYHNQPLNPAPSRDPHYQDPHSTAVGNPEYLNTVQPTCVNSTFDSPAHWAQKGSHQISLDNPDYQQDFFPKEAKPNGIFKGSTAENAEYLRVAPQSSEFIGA

A-431 [10] = assay: Antiproliferative activity against human A431 cells expressing wild type EGFR; format: functional, cell-based
NCI-H1975 [11] = assay: Antiproliferative activity against human NCI-H1975 cells expressing EGFR T790M/L858R mutant; format: functional, cell-based
MCF7 [12] = assay: Antiproliferative activity against human MCF7 cells expressing wild type HER2; format: functional, cell-based
NCI-H1975 [13] = assay: Antiproliferative activity against human NCI-H1975 cells expressing EGFR T790M/L858R mutant incubated for 72 hrs by MTS assay; format: functional, cell-based; conditions: NCI-H1975, 72 h
SK-BR-3 = assay: Antiproliferative activity against human SKBR3 cells expressing wild type HER2 incubated for 72 hrs by MTS assay; format: functional, cell-based; conditions: SK-BR-3, 72 h
[14] = Antiproliferative activity against human HS27 cells expressing wild type HER2 incubated for 72 hrs by MTS assay; format: cell-based
MCF7 [15] = assay: Antiproliferative activity against human MCF7 cells expressing wild type HER2 incubated for 72 hrs by MTS assay; format: functional, cell-based; conditions: MCF7, 72 h
A549 = assay: Antiproliferative activity against human A549 cells; format: functional, cell-based
[16] = Antiproliferative activity against human NCI-H1819 cells expressing wild type HER2 incubated for 72 hrs by MTS assay; format: functional, cell-based; conditions: NCI-H1819, 72 h
BT-474 = assay: Antiproliferative activity against human BT474 cells expressing wild type HER2 incubated for 72 hrs by MTS assay; format: functional, cell-based; conditions: BT-474, 72 h
NCI-N87 = assay: Antiproliferative activity against human NCI-N87 cells expressing wild type EGFR and HER2 incubated for 72 hrs by MTS assay; format: functional, cell-based; conditions: NCI-N87, 72 h

`C=CC(=O)Nc1cc2c(Nc3ccc(F)c(Cl)c3)ncnc2cc1C#CC(C)(C)N1CCN(C)CC1` [AV-412 FREE BASE] showed a pIC50 (A-431 [1]) of 7.00, a pIC50 [2] of 8.85 and a pIC50 [3] of 7.72. The pIC50 [4] was 8.64, the pIC50 [5] was 9.29 and the pIC50 [6] was 9.10.
With `CC(C)(O)CC(=O)NCCc1ccc2ncnc(Nc3ccc(Oc4cccc(C(F)(F)F)c4)c(Cl)c3)c2c1` the pIC50 [7] was 8.01, the pIC50 [8] was 7.72 and the pIC50 [9] was 7.48. For the same compound, the pIC50 (A-431 [10]) was 7.39, the pIC50 (NCI-H1975 [11]) was 6.90 and the pIC50 (MCF7 [12]) was 7.03.
`C=CC(=O)N1CCC(Oc2cc3c(Nc4ccc(Cl)c(Cl)c4F)ncnc3cc2OC)CC1` [POZIOTINIB] showed a pIC50 (A-431 [1]) of 9.05, a pIC50 (NCI-H1975 [13]) of 8.24 and a pIC50 [3] of 8.28. The pIC50 (SK-BR-3) was 9.00 and the GI50 at 72 h [14] was 3830 nM.
In the case of `O=C(Nc1ccc2ncnc(Nc3cccc(Br)c3)c2c1)c1ccc(C(F)(F)F)cc1O`, the pIC50 (A-431 [1]) was 6.17, the pIC50 (MCF7 [15]) was 6.31 and the pIC50 (A549) was 5.79.
`COc1cc2ncnc(Nc3ccc(F)c(Cl)c3)c2cc1NC(=O)/C=C/CN1CCCCC1` [DACOMITINIB ANHYDROUS] gave a pIC50 (NCI-H1975 [13]) of 6.36 and a pIC50 [16] of 7.54.
In the case of `CN(C)C/C=C/C(=O)Nc1cc2c(Nc3ccc(F)c(Cl)c3)ncnc2cc1O[C@@H]1CCOC1`, the pIC50 (NCI-H1975 [13]) was 7.04 and the pIC50 (BT-474) was 7.27.
`C=CC(=O)Nc1cc2c(Nc3ccc(F)c(Cl)c3)ncnc2cc1OCCCN1CCOCC1` [CANERTINIB] gave a pIC50 (NCI-H1975 [13]) of 7.00.
Work on `CCOc1cc2ncnc(Nc3ccc(OCc4cccc(F)c4)c(Cl)c3)c2cc1NC(=O)/C=C/[C@@H]1CCCN1` yielded a pIC50 (A-431 [1]) of 7.21, a pIC50 (NCI-H1975 [13]) of 7.47 and a pIC50 (NCI-N87) of 7.33.
